Data on 27 compounds can be found in US12503436B2, “Compounds and compositions for treating conditions associated with STING activity” (NOVARTIS PHARMA AG, priority 2021, dated 2025).

pEC50: −log10 of the molar value.

Sequence of STING (Q86WV6 whole entry R71H/G230A/H232R/R293Q): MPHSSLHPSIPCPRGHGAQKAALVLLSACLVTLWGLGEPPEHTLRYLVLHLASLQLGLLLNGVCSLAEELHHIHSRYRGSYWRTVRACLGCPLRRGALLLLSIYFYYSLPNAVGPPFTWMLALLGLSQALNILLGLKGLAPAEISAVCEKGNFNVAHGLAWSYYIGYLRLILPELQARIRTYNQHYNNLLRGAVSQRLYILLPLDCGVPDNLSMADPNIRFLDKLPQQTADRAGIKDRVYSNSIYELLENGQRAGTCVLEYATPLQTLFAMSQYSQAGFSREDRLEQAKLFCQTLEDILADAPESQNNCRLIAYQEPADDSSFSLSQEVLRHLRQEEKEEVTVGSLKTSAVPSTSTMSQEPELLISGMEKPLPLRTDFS

In the assay the target is STING (Homo sapiens, UniProt Q86WV6, G230A/H232R/R293Q/R71H). Kind of assay: STING reporter assay in THP1-Dual KO-IFNAR2 cells (2′3′cGAMP stimulation, luciferase reporter). The class given is cell-based. As to conditions: 15 μM 2′3′cGAMP stimulation, 24 h, read-out: Pharmaron, THP1_IFNAR2 STING 24 h Luci Normalized: GeoMean EC50. How it is done:
STING pathway activation by the compounds described herein was measured using THP1-Dual™ cells (KO-IFNAR2).
THP1-Dual™ KO-IFNAR2 Cells (obtained from InvivoGen) were maintained in RPMI, 10% FCS, 5 ml P/S, 2 mM L-glut, 10 mM Hepes, and 1 mM sodium pyruvate. Compounds were spotted in empty 384 well tissue culture plates (Greiner 781182) by Echo for a final concentration of 0.0017-100 μM. Cells were plated into the TC plates at 40 μL per well, 2×10E6 cells/mL. For activation with STING ligand, 2′3′cGAMP (MW 718.38, obtained from Invivogen), was prepared in Optimem media.
The following solutions were prepared for each 1×384 plate: • Solution A: 2 mL Optimem with one of the following stimuli: • 60 μL of 10 mM 2′3′cGAMP→150 μM stock • Solution B: 2 mL Optimem with 60 μL Lipofectamine 2000→Incubate 5 min at RT
2 mL of solution A and 2 ml Solution B was mixed and incubated for 20 min at room temperature (RT). 20 μL of transfection solution (A+B) was added on top of the plated cells, with a final 2′3′cGAMP concentration of 15 μM. The plates were then centrifuged immediately at 340 g for 1 minute, after which they were incubated at 37° C., 5% CO2, >98% humidity for 24 h. Luciferase reporter activity was then measured. EC50 values were calculated by using standard methods known in the art.
Luciferase reporter assay: 10 μL of supernatant from the assay was transferred to white 384-plate with flat bottom and squared wells. One pouch of QUANTI-Luc™ Plus was dissolved in 25 mL of water. 100 μL of QLC Stabilizer per 25 mL of QUANTI-Luc™ Plus solution was added. 50 μL of QUANTI-Luc™ Plus/QLC solution per well was then added. Luminescence was measured on a Platereader (e.g., Spectramax I3X (Molecular Devices GF3637001)).
Luciferase reporter activity was then measured. EC50 values were calculated by using standard methods known in the art.
For orientation: Reporter assays use an easily measured gene product as a stand-in for the process of interest.
As a reminder, the pEC50 is −log10 of the EC50, conventionally taken in molar units. `O=C(Nc1c[nH]c2ccc(CCOc3ccc(C(F)(F)F)cc3)cc12)C1CC(CO)C1` (stereo not drawn) [Compound 308, 3-(hydroxymethyl)-N-(5-(2-(4-(trifluoromethyl)phenoxy)ethyl)-1H-indol-3-yl)cyclobutane-1-carboxamide]: the pEC50 is 6.70 to 7.40. The result for `O=C(Nc1c[nH]c2ccc(OCCC3CCCN(CC(F)(F)F)C3)cc12)C1CC1` (stereo not drawn) [Compound 498, N-(5-(2-(1-(2,2,2-trifluoroethyl)piperidin-3-yl)ethoxy)-1H-indol-3-yl)cyclopropanecarboxamide] reads 6.00 to 6.70. Turning to `CC(=O)Nc1c[nH]c2ccc(CCOc3cnc(Cl)c(C)c3)cc12` [Compound 557, N-(5-(2-((6-chloro-5-methylpyridin-3-yl)oxy)ethyl)-1H-indol-3-yl)acetamide], the negative-log EC50 (pEC50) was 5.30 to 6.00. The result for `CC(=O)Nc1c[nH]c2ccc(CCOc3cc(Cl)cc(C#N)c3)cc12` [Compound 476, N-{5-[2-(3-chloro-5-cyanophenoxy)ethyl]-1H-indol-3-yl}acetamide] reads 5.30 to 6.00. Regarding “1-fluoro-N-(5-(2-((3aR,5r,6aS)-2-(2,2,2-trifluoroethyl)octahydrocyclopenta[c]pyrrol-5-yl)ethoxy)-1H-indol-3-yl)cyclopropane-1-carboxamide [Compound 371]”, the pEC50 is 6.00 to 6.70. The result for `COCCOCC(=O)Nc1c[nH]c2ccc(O[C@H]3C[C@@H](c4ccc(C(F)(F)F)cc4)C3)cc12` [Compound 405, 2-(2-methoxyethoxy)-N-(5-(cis-3-(4-(trifluoromethyl)phenyl)cyclobutoxy)-1H-indol-3-yl)acetamide] reads 6.00 to 6.70; that for `COCCOCC(=O)Nc1c[nH]c2ccc(OCCc3ccc(C(F)(F)F)cc3)cc12` [Compound 407, 2-(2-methoxyethoxy)-N-(5-(4-(trifluoromethyl)phenethoxy)-1H-indol-3-yl)acetamide], 6.00 to 6.70; that for `CC(=O)Nc1c[nH]c2ccc(COCc3cccc(C(F)(F)F)c3)cc12` [Compound 106, N-(5-(((3-(trifluoromethyl)benzyl)oxy)methyl)-1H-indol-3-yl)acetamide], 6.00 to 6.70. The result for `CC(=O)Nc1c[nH]c2ccc(COCc3ccc(C(F)(F)F)cc3)cc12` [Compound 111, N-(5-(((4-(trifluoromethyl)benzyl)oxy)methyl)-1H-indol-3-yl)acetamide] reads 6.70 to 7.40. With `O=C(Nc1c[nH]c2ccc(O[C@H]3C[C@@H](c4ccc(C(F)(F)F)cc4)C3)cc12)C1CN(CC(F)(F)F)C1` [Compound 243, 1-(2,2,2-trifluoroethyl)-N-(5-(cis-3-(4-(trifluoromethyl)phenyl)cyclobutoxy)-1H-indol-3-yl)azetidine-3-carboxamide], the pEC50 was 6.70 to 7.40. As for `CC(=O)Nc1c[nH]c2ccc(CCOc3ccc(-c4ccncc4)cc3)cc12` [Compound 451, N-(5-{2-[4-(pyridin-4-yl)phenoxy]ethyl} -1H-indol-3-yl)acetamide], the pEC50 was 5.30 to 6.00. With `CC(=O)Nc1c[nH]c2ccc(Oc3ccc(C(F)(F)F)cn3)cc12` [Compound 116, N-(5-((5-(trifluoromethyl)pyridin-2-yl)oxy)-1H-indol-3-yl)acetamide], the negative logarithm of the EC50 (pEC50) is 4.00 to 5.30. With `CC1(C(=O)Nc2c[nH]c3ccc(OCc4ccc(C(F)(F)F)cc4)cc23)CCOCC1` [Compound 328, 4-methyl-N-(5-((4-(trifluoromethyl)benzyl)oxy)-1H-indol-3-yl)tetrahydro-2H-pyran-4-carboxamide], the pEC50 was 6.00 to 6.70. The result for `O=C(Nc1c[nH]c2ccc(OCc3ccc(C(F)(F)F)cc3)cc12)C1CC1(F)F` (stereo not drawn) [Compound 330, 2,2-difluoro-N-(5-((4-(trifluoromethyl)benzyl)oxy)-1H-indol-3-yl)cyclopropane-1-carboxamide] reads 6.00 to 6.70. `CC1(F)CC(C(=O)Nc2c[nH]c3ccc(O[C@H]4C[C@@H](c5ccc(C(F)(F)F)cc5)C4)cc23)C1` (stereo partly drawn) [Compound 356, 3-fluoro-3-methyl-N-(5-(cis-3-(4-(trifluoromethyl)phenyl)cyclobutoxy)-1H-indol-3-yl)cyclobutane-1-carboxamide]: the pEC50 is 6.00 to 6.70.

For `CC1OC(C)C1C(=O)Nc1c[nH]c2ccc(OCCc3ccc(C(F)(F)F)cc3)cc12` (stereo not drawn) [Compound 525, 2,4-dimethyl-N-(5-(4-(trifluoromethyl)phenethoxy)-1H-indol-3-yl)oxetane-3-carboxamide], the negative logarithm of the EC50 (pEC50) is 6.00 to 6.70. The result for `CC1(C(=O)Nc2c[nH]c3ccc(O[C@H]4C[C@@H](c5ccc(C(F)(F)F)cc5)C4)cc23)CCC1` [Compound 360, 1-methyl-N-(5-(cis-3-(4-(trifluoromethyl)phenyl)cyclobutoxy)-1H-indol-3-yl)cyclobutane-1-carboxamide] reads 6.00 to 6.70; that for `CC1(F)CC(C(=O)Nc2c[nH]c3ccc(OCc4ccc(C(F)(F)F)cc4)cc23)C1` (stereo not drawn) [Compound 323, 3-fluoro-3-methyl-N-(5-((4-(trifluoromethyl)benzyl)oxy)-1H-indol-3-yl)cyclobutane-1-carboxamide], 6.00 to 6.70; that for `O=C(Nc1c[nH]c2ccc(O[C@H]3C[C@@H](c4ccc(C(F)(F)F)cc4)C3)cc12)[C@H]1C[C@@H](O)C1` [Compound 337, cis-3-hydroxy-N-(5-(cis-3-(4-(trifluoromethyl)phenyl)cyclobutoxy)-1H-indol-3-yl)cyclobutane-1-carboxamide], 6.00 to 6.70. For “cis-3-hydroxy-N-(5-(2-((3aR,5r,6aS)-2-(2,2,2-trifluoroethyl)octahydrocyclopenta[c]pyrrol-5-yl)ethoxy)-1H-indol-3-yl)cyclobutane-1-carboxamide [Compound 344]”, the pEC50 is 6.00 to 6.70. The result for `CC(=O)CCc1ccc(OCCc2ccc3[nH]cc(NC(C)=O)c3c2)cc1` [Compound 549, N-(5-(2-(4-(3-oxobutyl)phenoxy)ethyl)-1H-indol-3-yl)acetamide] reads 5.30 to 6.00; that for `CC(=O)Nc1c[nH]c2ccc(OCCc3sc(C(F)(F)F)nc3C)cc12` [Compound 484, N-(5-(2-(4-methyl-2-(trifluoromethyl)thiazol-5-yl)ethoxy)-1H-indol-3-yl)acetamide], 5.30 to 6.00; that for `CC(=O)Nc1c[nH]c2ccc(CCOc3ccc(C(F)(F)F)cc3)cc12` [Compound 127, N-(5-(2-(4-(trifluoromethyl)phenoxy)ethyl)-1H-indol-3-yl)acetamide], 6.70 to 7.40. `C[C@]1(C(=O)Nc2c[nH]c3ccc(OCc4ccc(C(F)(F)F)cc4)cc23)C[C@@H](O)C1` [Compound 414, cis-3-hydroxy-1-methyl-N-(5-((4-(trifluoromethyl)benzyl)oxy)-1H-indol-3-yl)cyclobutane-1-carboxamide]: the pEC50 was 6.00 to 6.70. The result for `CC(=O)Nc1c[nH]c2ccc(CCOc3ccc(Cl)c(Cl)c3)cc12` [Compound 214, N-(5-(2-(3,4-dichlorophenoxy)ethyl)-1H-indol-3-yl)acetamide] reads 6.00 to 6.70. With `O=C(Nc1c[nH]c2ccc(OCc3ccc(C(F)(F)F)cc3)cc12)C1CC1` [Compound 317, N-(5-((4-(trifluoromethyl)benzyl)oxy)-1H-indol-3-yl)cyclopropanecarboxamide], the negative logarithm of the EC50 (pEC50) was 6.00 to 6.70. The result for `CC(=O)Nc1c[nH]c2ccc(CCOc3cc(Cl)nc(C(F)(F)F)c3)cc12` [Compound 559, N-(5-(2-((2-chloro-6-(trifluoromethyl)pyridin-4-yl)oxy)ethyl)-1H-indol-3-yl)acetamide] reads 6.00 to 6.70.
